In patent publication US20250108139A1, “PEPTIDE UREA DERIVATIVE, PHARMACEUTICAL COMPOSITION CONTAINING PEPTIDE UREA DERIVATIVE, AND APPLICATION OF PEPTIDE UREA DERIVATIVE” (BIVISION PHARMACEUTICALS, INC, priority 2022, published 2025):

What was measured:
[1] = test system: 22rv1 tumor-bearing Balb/c Nude mouse; experiment: Treatment efficacy in 22RV1 tumor-bearing mouse model; assay type: in vivo; conditions: for T/C: 21st day; for Tumor volume, 21st day of group administration: mean ± standard error
Protocol: Balb/c Nude mouse, approximately 6-8 weeks old, were subcutaneously inoculated with 3×10^6 22rv1 cells (in 50% Matrigel, Corning) into the right scapular region. Once the tumors reached the required size for the experiment, the animals were randomly assigned into 11 experimental groups based on tumor volume, with 5 mouse per group. The body weight and tumor size of the animals were measured. On the day of grouping, treatments were administered as follows: control group (normal saline), group 1 (^177Lu-DB-13, 0.15 mCi/mouse), group 2 (^177Lu-DB-13, 0.45 mCi/mouse), group 3 (^177Lu-DB-13, 0.05 mCi/mouse), group 4 (^177Lu-B-11, 0.05 mCi/mouse), group 5 (^177Lu-DB-11, 0.15 mCi/mouse), group 6 (^177Lu-DB-11, 0.45 mCi/mouse), group 7 (^177Lu-PSMA-617, 0.15 mCi/mouse), group 8 (^177Lu-PSMA-617, 0.45 mCi/mouse), group 9 (^177Lu-DB-19, 0.05 mCi/mouse), group 10 (^177Lu-DB-19, 0.15 mCi/mouse), group 11 (^177Lu-DB-19, 0.45 mCi/mouse). After the start of treatment, general health and appearance were observed daily. Body weight and tumor size were measured at each sampling time point. Any abnormal observations during the study were recorded in the raw data.

PSMA protein = PSMA protein (Homo sapiens (Human), UniProt Q04609); experiment: Affinity of DB compounds to PSMA protein using Biacore (Effect Example 3); conditions: Biacore 8K, 15° C., 1:1 binding model; pKD=−Log KD
Protocol: The affinity of DB compounds to PSMA protein was tested using the Biacore 8K (Cytiva) instrument to detect ligand binding to PSMA protein (Sino Biological). PSMA protein was captured on an SA chip. Before fixing the ligand (flow paths 1 and 2, flow rate of 10 μL/min), PSMA protein (10 μg/mL, flow rate of 5 μL/min, injection time of 600 s) was fixed on flow path 2 using a flow buffer. The sensor surface was adjusted by continuously injecting 1 M NaCl three times in 50 mM NaOH. After each ligand injection, additional cleaning was performed using isopropanol in 1 M NaCl and 50 mM NaOH (flow paths 1 and 2, flow rate of 10 μL/min, injection time of 60 s).
All compounds were dissolved in 100% DMSO and diluted to 10 mM, then further diluted to the appropriate highest concentration in the analysis buffer (PBS, PH 7.4, 1 mM TCEP ([…]), 0.05% P20, 2% DMSO). The analysis was conducted under the following conditions: 15° C. analysis temperature; analysis steps=all set to LMW kinetics; cycle type=single cycle (90 s contact time, 1800 s dissociation time, 30 μL/min flow rate, flow paths 1 and 2); detection in flow=path 2-1. Data evaluation was performed using Biacore Insight Evaluation Software, fitting the data to a 1:1 binding model.
Biacore results are shown in Table 5: pKD=−Log KD, wherein KD is the binding affinity of the compound to PSMA protein measured by Biacore. It is expressed by Kd (M)=Kd (1/s)/Ka (1/Ms). A indicates pKD>8; B indicates 7<pKD<8; C indicates 6<pKD<7; D indicates pKD<6.

[2] = test system: PSMA-positive 22rv1 tumor-bearing mouse; experiment: 177Lu labeling and animal biodistribution experiment, gamma counter; assay type: in vivo; conditions: 177Lu-labeled compound, 24 h after tail vein injection, n = 2
Protocol: Distribution in PSMA-positive tumor-bearing mouse tissues: Tumor-bearing animals (purchased from Shanghai Alamo Pharmaceutical Technology Co., Ltd.) were subcutaneously inoculated with 3×10^6 22rv1 cells (in 50% Matrigel, Corning) into the right shoulder region of 6-9 week old (Balb/c Nude) mouse. Once the tumors had grown to an appropriate size, ^177Lu-radiolabeled DB compounds were injected into the mouse via the tail vein (approximately 1.85 MBq-3.7 MBq/mouse, specific activity: 22423.82 Kbq/μg). After administration, the animals were euthanized using carbon dioxide inhalation at 24 hours. The blood and organs (blood, liver, kidney, muscle, tumor) were collected.
Blood was collected through the abdominal aorta and 100 μL was immediately quantified into designated centrifuge tubes (weighed). After collection, the organs were washed twice with deionized water, dried, placed in pre-weighed tubes, and weighed again to calculate the sample weight. Samples were measured on the day of collection. All blood and tissue samples were measured for radioactivity using a gamma counter. The results are shown in FIGS. 3, 4, 5, 6, 7, and Table 6.

[3] = target: PSMA-expressing cells (22Rv1) (Homo sapiens (Human), UniProt Q04609); experiment: Competitive binding against radiolabeled PSMA-617 ligand on 22Rv1 cells; conditions: unlabeled compound vs radiolabeled PSMA-617 ligand, on ice 2 hours
Protocol: (1) 22Rv1 cells in the logarithmic growth phase were prepared into a cell suspension, and the cell density was adjusted to 1×10^4 cells/mL. 1 mL of the cell suspension was seeded into each well of a 24-well cell culture plate. The cells were cultured overnight in a 37° C. incubator.
(2) The cell culture medium was aspirated, and the cells were washed once with PBS. Then, 975 μL of additive-free medium was added.
(3) To each well, 25 μL of a fixed concentration of radiolabeled PSMA-617 ligand (final concentration in the medium: 2 μCi/mL) and different concentrations (final concentrations in the medium: 1000 ng/ml, 100 ng/mL, 10 ng/mL, 1 ng/mL, 0.1 ng/mL, 0.01 ng/mL, 0.001 ng/mL, 0 ng/ml) of the unlabeled test blocking compounds DB-18, DB-19, DB-13, E-3 were added.
(4) The cells were incubated on ice for 2 hours.
(5) The cells were washed three times with ice-cold PBS.
(6) The cells were lysed with 0.5 mL of 1 M sodium hydroxide, and washed twice with 0.5 mL PBS. The sodium hydroxide (0.5 mL) and PBS (0.5 mL×2) solutions were collected for uptake counting.

[4] = Determination of Log P (n-octanol/water partition); assay type: physicochemical; conditions: 177Lu-labeled compound, mean of three tubes
Protocol: Three EP tubes were prepared, each containing 0.1 mL of saturated n-octanol and 80 μL of ultrapure water. Then, 20 μL (approximately 1 MBq) of the ^177Lu-labeled DB-13, DB-18, and DB-19 compound solutions were added to the respective tubes. After shaking evenly, the tubes were centrifuged at room temperature (2000 r/min, 5 minutes, centrifugation radius of 10 cm). From each tube, 100 μL was taken from both the lipid layer and the aqueous layer, and the radioactivity counts per minute for both phases were measured. The Log P values were calculated, and their mean values were taken as the final result.

albumin in rat plasma = experiment: Plasma protein binding (PPB) test by ultrafiltration; assay type: in vitro ADME; conditions: 177Lu-labeled compound
Protocol: The labeled compounds ^177Lu-E-3, 177Lu-DB-13, 177Lu-DB-18, and ^177Lu-DB-19 (1 μCi) were prepared in a reaction solution by adding 50 μL of PBS to achieve a concentration of 20 μCi/mL. 50 μL of the 20 μCi/mL reaction solution was added to 200 μL of plasma, repeated for 3 tubes. The mixture was mixed well and incubated at room temperature for 10 minutes, then added to ultrafiltration tubes and centrifuged at 13000 rpm for 45 minutes. Following this, 50 μL of normal saline was added and the samples were centrifuged again for 15 minutes. The upper chamber and the filtrate were respectively counted for radioactivity.
PPB=[(upper chamber counts−background counts]/(filtrate counts+upper chamber counts−2*background counts)]*100%.

hPSMA-biotin = hPSMA-biotin (Homo sapiens (Human), UniProt Q04609); experiment: Binding kinetics and affinity with PSMA protein by Biacore 8K (Effect Example 1); conditions: for Kd / kd / kon: 1:1 binding model; for kon: read-out: ka
Protocol: The dissociation constant was determined using the Biacore 8K (GE Healthcare) following the manufacturer's instructions. In brief, PSMA-bio protein, diluted in PBS pH 7.4 with 1 mM TCEP, 0.05% Tween 20, and 2% DMSO buffer, was immobilized on the flow cell of an SA sensor chip. Using PBS pH 7.4, 1 mM TCEP, 0.05% Tween 20, and 2% DMSO as the running buffer, five serial dilutions of the PSMA-targeting candidate molecules were injected into the flow cell at a rate of 30 μL/min, with a binding time of 90 seconds. The buffer flow was maintained for 1800 seconds to allow dissociation. The KD values for the interaction between the candidate small molecules and the PSMA protein were evaluated using Biacore 8K evaluation software 1.0 and a 1:1 binding model.

Chain of hPSMA-biotin (Q04609 whole entry): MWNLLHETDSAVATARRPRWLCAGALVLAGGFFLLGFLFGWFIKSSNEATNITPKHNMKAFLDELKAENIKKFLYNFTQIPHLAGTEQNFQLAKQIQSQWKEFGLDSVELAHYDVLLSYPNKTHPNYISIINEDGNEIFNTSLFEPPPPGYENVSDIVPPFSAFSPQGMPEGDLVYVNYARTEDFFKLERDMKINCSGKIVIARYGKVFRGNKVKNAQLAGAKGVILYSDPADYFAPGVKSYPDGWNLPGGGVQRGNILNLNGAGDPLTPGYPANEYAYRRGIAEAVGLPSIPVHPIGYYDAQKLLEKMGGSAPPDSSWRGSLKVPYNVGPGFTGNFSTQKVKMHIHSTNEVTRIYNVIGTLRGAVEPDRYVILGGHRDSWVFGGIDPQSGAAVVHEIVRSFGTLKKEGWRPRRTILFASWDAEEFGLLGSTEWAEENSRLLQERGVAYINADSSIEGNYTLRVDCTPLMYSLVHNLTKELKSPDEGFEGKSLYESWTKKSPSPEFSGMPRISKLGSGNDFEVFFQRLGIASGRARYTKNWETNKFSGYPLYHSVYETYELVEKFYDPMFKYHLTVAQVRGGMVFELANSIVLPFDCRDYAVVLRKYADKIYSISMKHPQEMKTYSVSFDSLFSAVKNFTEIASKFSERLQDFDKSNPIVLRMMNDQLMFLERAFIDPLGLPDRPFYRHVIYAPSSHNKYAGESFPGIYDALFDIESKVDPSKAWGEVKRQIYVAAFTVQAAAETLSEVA
Chain of PSMA-expressing cells (22Rv1) (Q04609 whole entry): as above
Chain of PSMA protein (Q04609 whole entry): as above

Row | Structure (SMILES) | Kd (PSMA protein) | Blood uptake [2] | Kidney uptake [2] | Liver uptake [2] | Muscle uptake [2] | IC50 [3] | logP [4] | plasma protein binding ratio (albumin binding ratio) (albumin in rat plasma) | also measured
1 | O=C([O-])CN1CCN(CC(=O)[O-])CCN(CC(=O)NCC2CCC(C(=O)N[C@@H](Cc3ccc4ccccc4c3)C(=O)NCCCC[C@H](NC(=O)N[C@@H](CCC(=O)O)C(=O)O)C(=O)O)CC2)CCN(CC(=O)[O-])CC1.[177Lu+3] (stereo partly drawn) [177Lu-PSMA-617] |  |  |  |  |  |  |  |  | T/C ([1]; 0.15 mCi/mouse): 97.41%; Tumor volume, 21st day of group administration ([1]; 0.15 mCi/mouse): 2,616.99 ± 203.91 mm^3; T/C ([1]; 0.45 mCi/mouse): 101.47%; Tumor volume, 21st day of group administration ([1]; 0.45 mCi/mouse): 2,726.19 ± 926.52 mm^3
2 | O=C(O)CC[C@H](NC(=O)N[C@@H](CCCCNC(=O)[C@H](Cc1ccc2ccccc2c1)NC(=O)c1ccc2c(c1)CCN(C(=O)CN1CCN(CC(=O)O)CCN(CC(=O)O)CCN(CC(=O)O)CC1)C2)C(=O)O)C(=O)O [Compound E-3, reference compound] | < 10 nM | 0.02 % ID/g | 2.01 % ID/g | 0.09 % ID/g | 0.035 % ID/g | 2.06 nM | -3.46 | 86.61% | Tumor uptake [2]: 32.875 % ID/g
3 | O=C(O)CC[C@H](NC(=O)N[C@@H](CCCCNC(=O)[C@H](Cc1ccc2ccccc2c1)NC(=O)c1ccc2c(c1)CCN(C(=O)CCC(=O)NCCCC[C@H](NC(=O)CCC(=O)N1CCc3cc(C(=O)N[C@@H](Cc4ccc5ccccc5c4)C(=O)NCCCC[C@H](NC(=O)N[C@@H](CCC(=O)O)C(=O)O)C(=O)O)ccc3C1)C(=O)NCCNC(=O)CN1CCN(CC(=O)O)CCN(CC(=O)O)CCN(CC(=O)O)CC1)C2)C(=O)O)C(=O)O [DB-11] | < 10 nM | 1.125 % ID/g | 87.105 % ID/g | 1.625 % ID/g | 0.055 % ID/g |  |  |  | Tumor uptake [2]: 41.83 % ID/g; tumor growth inhibition ([1]; high dose 0.45 mCi, effect decreased over time, remained higher than PSMA-617): a certain degree of tumor growth inhibition
4 | O=C(O)CC[C@H](NC(=O)NC(CCCCNC(=O)[C@H](Cc1ccc2ccccc2c1)NC(=O)c1ccc2c(c1)CCN(C(=O)c1cc(NC(=O)CN3CCN(CC(=O)O)CCN(CC(=O)O)CCN(CC(=O)O)CC3)cc(C(=O)N3CCc4cc(C(=O)N[C@@H](Cc5ccc6ccccc6c5)C(=O)NCCCC[C@H](NC(=O)N[C@@H](CCC(=O)O)C(=O)O)C(=O)O)ccc4C3)c1)C2)C(=O)O)C(=O)O (stereo partly drawn) [DB-18] | < 10 nM |  |  |  |  | 2.58 nM | -1.86 | 70.51% | 

Continued, in another order:

Row | Kd (PSMA protein) | Blood uptake [2] | Kidney uptake [2] | Liver uptake [2] | Muscle uptake [2] | IC50 [3] | logP [4] | plasma protein binding ratio (albumin binding ratio) (albumin in rat plasma) | Structure (SMILES) | also measured
5 | < 10 nM |  |  |  |  |  |  |  | O=C(O)CC[C@H](NC(=O)N[C@@H](CCCCNC(=O)[C@H](Cc1ccc2ccccc2c1)NC(=O)[C@H]1CC[C@H](CNC(=O)c2cc(NC(=O)CN3CCN(CC(=O)O)CCN(CC(=O)O)CCN(CC(=O)O)CC3)cc(C(=O)NC[C@H]3CC[C@H](C(=O)N[C@@H](Cc4ccc5ccccc5c4)C(=O)NCCCC[C@H](NC(=O)N[C@@H](CCC(=O)O)C(=O)O)C(=O)O)CC3)c2)CC1)C(=O)O)C(=O)O [DB-01] | binding affinity compared with PSMA-617 (hPSMA-biotin): slightly higher than that of PSMA-617; Kd (hPSMA-biotin): 0.12 nM; kd (hPSMA-biotin): 2.65e-05 s⁻¹; kon (hPSMA-biotin): 222000 M⁻¹ s⁻¹
6 | < 10 nM | 1.715 % ID/g | 177.885 % ID/g | 2.725 % ID/g | 0.73 % ID/g | 0.93 nM | -1.79 | 59.07% | O=C(O)CC[C@H](NC(=O)NC(CCCCNC(=O)[C@H](Cc1ccc2ccccc2c1)NC(=O)c1ccc2c(c1)CCN(C(=O)CNC(=O)c1cc(NC(=O)CNC(=O)CN3CCN(CC(=O)O)CCN(CC(=O)O)CCN(CC(=O)O)CC3)cc(C(=O)NCC(=O)N3CCc4cc(C(=O)N[C@@H](Cc5ccc6ccccc6c5)C(=O)NCCCC[C@H](NC(=O)N[C@@H](CCC(=O)O)C(=O)O)C(=O)O)ccc4C3)c1)C2)C(=O)O)C(=O)O (stereo partly drawn) [DB-19] | tumor growth inhibition compared with PSMA-617 ([1]; two doses, 0.15 mCi and 0.45 mCi): superior tumor growth inhibition
7 | < 10 nM |  |  |  |  |  |  |  | O=C(O)CC[C@H](NC(=O)N[C@@H](CCCCNC(=O)[C@H](Cc1ccc2ccccc2c1)NC(=O)[C@H]1CC[C@H](CNC(=O)CN2CCN(CC(=O)O)CCN(CC(=O)O)CCN(CC(=O)O)CC2)CC1)C(=O)O)C(=O)O [PSMA-617, reference compound] | Kd (hPSMA-biotin): 0.483 nM; kd (hPSMA-biotin): 4.88e-05 s⁻¹; kon (hPSMA-biotin): 101000 M⁻¹ s⁻¹
